Measured values as given in patent US9513294B2, “Megastokes amino-triazolyl-BODIPY compounds and applications to live neuron staining and human serum albumin FA1 drug site probing” (National University of Singapore, priority 2012, dated 2016).

Columns and labels:
[1] = Quantum yield measurements versus Acridine Yellow in EtOH; assay type: physicochemical; settings: for φ (quantum yield): excitation 460 nm; for φ (%): MKAC compound library, quantum yield
Experimental: (§1) ^1H-NMR, ^19F-NMR and ^13C-NMR spectra were recorded on Bruker ACF300 (300 MHz), DPX300 (300 MHz) and AMX500 (500 MHz) spectrometers. High resolution mass spectra (ESI) were obtained on a Finnigan/MAT 95XL-T spectrometer. Spectroscopic and quantum yield data were measured on a SpectraMax M2 spectrophotometer (Molecular Devices). Data analysis was performed using GraphPrism 5.0. Analytical characterization was performed on a HPLC-MS (Agilent-1200 series) with a DAD detector and a single quadrupole mass spectrometer (6130 series) with an ESI probe. Analytical HPLC method: eluents, A: H2O (0.1% HCOOH), B: CH3CN (0.1% HCOOH), gradient 5% B to 95% B (10 min). Reverse-phase Phenomenex C18 Luna column (4.6×50 mm^2, 3.5 […]), flow rate: 1 mL/min.
Quantum yields were calculated by measuring the integrated emission area of the fluorescent spectra and comparing to the area measured for Acridine Yellow in EtOH when excited at 460 nm (Φfluorescence^AcridineYellow=0.47). Quantum yields for the amino-triazolyl-BODIPYs were calculated using the equation below, where F represents the area of fluorescent emission, η is the refractive index of the solvent, and Abs is absorbance at the excitation wavelength selected for standards and samples. Emission was integrated between 510 and 700 nm.

[2] = Absorbance and fluorescence emission spectra (SpectraMax M2); assay type: physicochemical; settings: for λmax Abs. (nm) / λmax Em. (nm): MKAC compound library
Experimental: BDC-8 (Blue): absorbance λmax=473 nm, emission λmax=585 nm; MK101-8 (Green): absorbance λmax=474 nm, emission λmax=563 nm; MKHA374-48 (Yellow): absorbance λmax=468 nm, λem=557 nm. The corresponding spectra of a reported BODIPY (BD-27; Red) are also included for comparison: absorbance λmax=551 nm, emission λmax=568 nm. The structures of BDC-8, MK101-8, MKHA374-48 and BD-27 are also depicted.
as §1

SMILES | φ (quantum yield) ([1]; BDC library, Table 2) [%] | λmax Absorp. ([2]; BDC library, Table 2) [nm] | λmax Emission ([2]; BDC library, Table 2) [nm] | also measured
CCCCCC(O)c1cn(-c2ccc3n2[B-](F)(F)[N+]2=C(N4CCCCC4)C=CC2=C3c2ccc(NC(C)=O)cc2)nn1 (racemic) [BDCAC-69] | – | – | – | φ (quantum yield) ([1]; BDCAC library, Table 3): 0.8%; λmax Absorp. ([2]; BDCAC library, Table 3): 468 nm; λmax Emission ([2]; BDCAC library, Table 3): 587 nm
CCCC(C)c1cn(-c2ccc3n2[B-](F)(F)[N+]2=C(N4CCCCC4)C=CC2=C3c2ccc(NC(=O)CCl)cc2)nn1 (racemic) [BDCCA-3] | – | – | – | φ (quantum yield) ([1]; BDCCA library, Table 4): 0.9%; λmax Absorp. ([2]; BDCCA library, Table 4): 467 nm; λmax Emission ([2]; BDCCA library, Table 4): 587 nm
CCCCCC(O)c1cn(-c2ccc3n2[B-](F)(F)[N+]2=C(N4CCCCC4)C=CC2=C3c2ccc(NC(=O)CCl)cc2)nn1 (racemic) [BDCCA-69] | – | – | – | φ (quantum yield) ([1]; BDCCA library, Table 4): 0.7%; λmax Absorp. ([2]; BDCCA library, Table 4): 467 nm; λmax Emission ([2]; BDCCA library, Table 4): 587 nm
CCCC(C)c1cn(-c2ccc3n2[B-](F)(F)[N+]2=C(NCc4cc(OC)ccc4OC)C=CC2=C3c2ccc(NC(C)=O)cc2)nn1 (racemic) [MKAC181-3] | – | – | – | φ (%) [1]: 15.41%; λmax Abs. (nm) ([2]; absorbance maximum): 465 nm; λmax Em. (nm) ([2]; fluorescence emission maximum): 562 nm
CCCCCC(O)c1cn(-c2ccc3n2[B-](F)(F)[N+]2=C(NCc4cc(OC)ccc4OC)C=CC2=C3c2ccc(NC(C)=O)cc2)nn1 (racemic) [MKAC181-69] | – | – | – | φ (%) [1]: 16.50%; λmax Abs. (nm) ([2]; absorbance maximum): 465 nm; λmax Em. (nm) ([2]; fluorescence emission maximum): 561 nm
CCCC(C)c1cn(-c2ccc3n2[B-](F)(F)[N+]2=C(N(C)Cc4ccccc4)C=CC2=C3c2ccc(NC(C)=O)cc2)nn1 (racemic) [MKAC195-3] | – | – | – | φ (%) [1]: 6.53%; λmax Abs. (nm) ([2]; absorbance maximum): 465 nm; λmax Em. (nm) ([2]; fluorescence emission maximum): 574 nm
CCCCCC(O)c1cn(-c2ccc3n2[B-](F)(F)[N+]2=C(N(C)Cc4ccccc4)C=CC2=C3c2ccc(NC(C)=O)cc2)nn1 (racemic) [MKAC195-69] | – | – | – | φ (%) [1]: 3.467%; λmax Abs. (nm) ([2]; absorbance maximum): 467 nm; λmax Em. (nm) ([2]; fluorescence emission maximum): 560 nm
CCCC(C)c1cn(-c2ccc3n2[B-](F)(F)[N+]2=C(N4CCCC4)C=CC2=C3c2ccc(NC(C)=O)cc2)nn1 (racemic) [MKAC215-3] | – | – | – | φ (%) [1]: 3.81%; λmax Abs. (nm) ([2]; absorbance maximum): 461 nm; λmax Em. (nm) ([2]; fluorescence emission maximum): 569 nm
CCCCCC(O)c1cn(-c2ccc3n2[B-](F)(F)[N+]2=C(N4CCCC4)C=CC2=C3c2ccc(NC(C)=O)cc2)nn1 (racemic) [MKAC215-69] | – | – | – | φ (%) [1]: 2.00%; λmax Abs. (nm) ([2]; absorbance maximum): 462 nm; λmax Em. (nm) ([2]; fluorescence emission maximum): 566 nm
CC(C)(C)c1cn(-c2ccc3n2[B-](F)(F)[N+]2=C(N4CCCCC4)C=CC2=C3c2ccc(N)cc2)nn1 [BDC-1] | 0.18 | 475 | 593 | –
CN(C)Cc1cn(-c2ccc3n2[B-](F)(F)[N+]2=C(N4CCCCC4)C=CC2=C3c2ccc(N)cc2)nn1 [BDC-2] | 0.13 | 469 | 587 | –
CCCC(C)c1cn(-c2ccc3n2[B-](F)(F)[N+]2=C(N4CCCCC4)C=CC2=C3c2ccc(N)cc2)nn1 (stereo not shown) [BDC-3] | 0.37 | 475 | 567 | –
Nc1ccc(C2=C3C=CC(N4CCCCC4)=[N+]3[B-](F)(F)n3c2ccc3-n2cc(C3CC3)nn2)cc1 [BDC-4] | 0.16 | 475 | 590 | –
Nc1ccc(C2=C3C=CC(N4CCCCC4)=[N+]3[B-](F)(F)n3c2ccc3-n2cc(C3CCCC3)nn2)cc1 [BDC-5] | 0.16 | 476 | 582 | –
Nc1ccc(C2=C3C=CC(N4CCCCC4)=[N+]3[B-](F)(F)n3c2ccc3-n2cc(C3CCCCC3)nn2)cc1 [BDC-6] | 0.24 | 473 | 582 | –
Nc1ccc(C2=C3C=CC(N4CCCCC4)=[N+]3[B-](F)(F)n3c2ccc3-n2cc(CC3CCCC3)nn2)cc1 [BDC-7] | 0.23 | 476 | 573 | –
Nc1ccc(C2=C3C=CC(N4CCCCC4)=[N+]3[B-](F)(F)n3c2ccc3-n2cc(CC3CCCCC3)nn2)cc1 [BDC-8] | 0.24 | 473 | 585 | absorbance λmax ([2]; FIG. 2 normalized spectra): 473 nm; emission λmax ([2]; FIG. 2 normalized spectra): 585 nm
Cc1ccc(-c2cn(-c3ccc4n3[B-](F)(F)[N+]3=C(N5CCCCC5)C=CC3=C4c3ccc(N)cc3)nn2)cc1 [BDC-10] | 0.28 | 470 | 564 | –

SMILES | φ (quantum yield) ([1]; BDC library, Table 2) [%] | λmax Absorp. ([2]; BDC library, Table 2) [nm] | λmax Emission ([2]; BDC library, Table 2) [nm] | also measured
CC(C)(C)c1ccc(-c2cn(-c3ccc4n3[B-](F)(F)[N+]3=C(N5CCCCC5)C=CC3=C4c3ccc(N)cc3)nn2)cc1 [BDC-11] | 0.74 | 471 | 552 | –
CCCCc1ccc(-c2cn(-c3ccc4n3[B-](F)(F)[N+]3=C(N5CCCCC5)C=CC3=C4c3ccc(N)cc3)nn2)cc1 [BDC-12] | 0.09 | 473 | 594 | –
CN(C)c1ccc(-c2cn(-c3ccc4n3[B-](F)(F)[N+]3=C(N5CCCCC5)C=CC3=C4c3ccc(N)cc3)nn2)cc1 [BDC-13] | 0.03 | 475 | 616 | –
COc1cc(OC)cc(-c2cn(-c3ccc4n3[B-](F)(F)[N+]3=C(N5CCCCC5)C=CC3=C4c3ccc(N)cc3)nn2)c1 [BDC-14] | 0.18 | 473 | 578 | –
Nc1ccc(C2=C3C=CC(N4CCCCC4)=[N+]3[B-](F)(F)n3c2ccc3-n2cc(-c3ccc(OC(F)(F)F)cc3)nn2)cc1 [BDC-15] | 0.19 | 469 | 549 | –
Nc1ccc(C2=C3C=CC(N4CCCCC4)=[N+]3[B-](F)(F)n3c2ccc3-n2cc(-c3ccc(F)c(F)c3)nn2)cc1 [BDC-16] | 0.18 | 471 | 585 | –
Nc1ccc(C2=C3C=CC(N4CCCCC4)=[N+]3[B-](F)(F)n3c2ccc3-n2cc(COc3ccccc3)nn2)cc1 [BDC-17] | 0.11 | 474 | 591 | –
CN(Cc1ccccc1)Cc1cn(-c2ccc3n2[B-](F)(F)[N+]2=C(N4CCCCC4)C=CC2=C3c2ccc(N)cc2)nn1 [BDC-18] | 0.18 | 471 | 580 | –
Nc1ccc(C2=C3C=CC(N4CCCCC4)=[N+]3[B-](F)(F)n3c2ccc3-n2cc(CCc3ccccc3)nn2)cc1 [BDC-19] | 0.08 | 476 | 594 | –
COc1ccc2cc(-c3cn(-c4ccc5n4[B-](F)(F)[N+]4=C(N6CCCCC6)C=CC4=C5c4ccc(N)cc4)nn3)ccc2c1 [BDC-22] | 0.28 | 472 | 579 | –
Nc1ccc(C2=C3C=CC(N4CCCCC4)=[N+]3[B-](F)(F)n3c2ccc3-n2cc(-c3ccc(-c4ccccc4)cc3)nn2)cc1 [BDC-23] | 0.20 | 472 | 570 | –
Nc1ccc(C2=C3C=CC(N4CCCCC4)=[N+]3[B-](F)(F)n3c2ccc3-n2cc(-c3ccc(F)cc3F)nn2)cc1 [BDC-26] | 0.12 | 473 | 585 | –
COc1cccc(-c2cn(-c3ccc4n3[B-](F)(F)[N+]3=C(N5CCCCC5)C=CC3=C4c3ccc(N)cc3)nn2)c1 [BDC-27] | 0.17 | 472 | 565 | –
CCCCCc1ccc(-c2cn(-c3ccc4n3[B-](F)(F)[N+]3=C(N5CCCCC5)C=CC3=C4c3ccc(N)cc3)nn2)cc1 [BDC-29] | 0.23 | 471 | 586 | –
Nc1ccc(C2=C3C=CC(N4CCCCC4)=[N+]3[B-](F)(F)n3c2ccc3-n2cc(-c3cc(C(F)(F)F)cc(C(F)(F)F)c3)nn2)cc1 [BDC-30] | 0.57 | 466 | 547 | –
Nc1ccc(C2=C3C=CC(N4CCCCC4)=[N+]3[B-](F)(F)n3c2ccc3-n2cc(-c3cccc(F)c3)nn2)cc1 [BDC-31] | 0.11 | 470 | 582 | –
CC(C)CCc1cn(-c2ccc3n2[B-](F)(F)[N+]2=C(N4CCCCC4)C=CC2=C3c2ccc(N)cc2)nn1 [BDC-36] | 0.11 | 476 | 590 | –
CCCC(C)c1cn(-c2ccc3n2[B-](F)(F)[N+]2=C(NCc4cc(OC)ccc4OC)C=CC2=C3c2ccc(NC(=O)CCl)cc2)nn1 (stereo not shown) [MKCA181-3] | – | – | – | λmax Absorp. (nm) ([2]; MKCA compound library, absorbance maximum): 465 nm; λmax Emission (nm) ([2]; MKCA compound library, fluorescence emission maximum): 564 nm
